From patent publication US8802597B2, “Herbicidal pyrimidines” (E I du Pont de Nemours and Company, priority 2003, dated 2014)

Assays:
Format in all cases: in vivo
[1] = tested on: Surinam grass (Brachiaria decumbens); assay: Test C pre/postemergence; settings: for Surinam Grass plant response rating: scale 0 to 100 (0 no effect, 100 complete control)
How it was run: (§1)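 Seeds sown and sprayed preemergence with test compound in non-phytotoxic solvent containing surfactant; postemergence sprays, same formulation, went onto plants 2 to 18 cm tall (1- to 4-leaf stage). Plants held in greenhouse 12 to 14 days, then visually rated against untreated controls on a 0–100 scale (0 no effect, 100 complete control).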

corn (Zea mays) = assay: Test C pre/postemergence; settings: for Corn plant response rating: scale 0 to 100 (0 no effect, 100 complete control); for Plant response rating, Corn: scale 0 to 100
How it was run: as §1

[2] = tested on: goosegrass (Eleusine indica); assay: Test C pre/postemergence; settings: for Goosegrass plant response rating: scale 0 to 100 (0 no effect, 100 complete control)
How it was run: as §1

[3] = tested on: Italian ryegrass (Lolium multiflorum); assay: Test C postemergence; settings: for Ryegrass, Italian plant response rating: scale 0 to 100 (0 no effect, 100 complete control); for Plant response rating, Ryegrass, Italian: scale 0 to 100
How it was run: as §1

[4] = tested on: blackgrass (Alopecurus myosuroides); assay: Test C postemergence; settings: for Blackgrass plant response rating: scale 0 to 100 (0 no effect, 100 complete control); for Plant response rating, Blackgrass: scale 0 to 100
How it was run: as §1

[5] = tested on: canarygrass (Phalaris minor); assay: Test C postemergence; settings: for Canarygrass plant response rating: scale 0 to 100 (0 no effect, 100 complete control); for Plant response rating, Canarygrass: scale 0 to 100
How it was run: as §1

[6] = tested on: downy brome (Bromus tectorum); assay: Test C postemergence; settings: for Bromegrass, Downy plant response rating: scale 0 to 100 (0 no effect, 100 complete control); for Plant response rating, Bromegrass, Downy: scale 0 to 100
How it was run: as §1

[7] = tested on: green foxtail (Setaria viridis); assay: Test C postemergence; settings: for Foxtail, Green plant response rating: scale 0 to 100 (0 no effect, 100 complete control); for Plant response rating, Foxtail, Green: scale 0 to 100
How it was run: as §1

[8] = tested on: wheat (Triticum aestivum); assay: Test C postemergence; settings: for Wheat plant response rating: scale 0 to 100 (0 no effect, 100 complete control); for Plant response rating, Wheat: scale 0 to 100
How it was run: as §1

wild oat (Avena fatua) = assay: Test C postemergence; settings: for Oat, Wild plant response rating: scale 0 to 100 (0 no effect, 100 complete control); for Plant response rating, Oat, Wild: scale 0 to 100
How it was run: as §1

[9] = tested on: windgrass (Apera spica-venti); assay: Test C postemergence; settings: for Windgrass plant response rating: scale 0 to 100 (0 no effect, 100 complete control); for Plant response rating, Windgrass: scale 0 to 100
How it was run: as §1

[10] = tested on: winter barley (Hordeum vulgare); assay: Test C postemergence; settings: for Barley plant response rating: scale 0 to 100 (0 no effect, 100 complete control); for Plant response rating, Barley: scale 0 to 100
How it was run: as §1

[11] = Postemergence, 250 g ai/ha, scale 0 to 100
[12] = Postemergence, 500 g ai/ha, scale 0 to 100
[13] = Preemergence, 62 g ai/ha, scale 0 to 100, 0 no effect, 100 complete control
[14] = Preemergence, 125 g ai/ha, scale 0 to 100
[15] = Preemergence, 250 g ai/ha, scale 0 to 100
[16] = Preemergence, 500 g ai/ha, scale 0 to 100

CNN=Cc1nc(C2CC2)nc(N)c1Br [Compound 49]
25: Plant response rating, Corn (corn (Zea mays); Postemergence, 500 g ai/ha) | Plant response rating, Goosegrass [2, 12]
60: Plant response rating, Blackgrass ([4]; 500 g ai/ha) | Plant response rating, Foxtail, Green ([7]; 500 g ai/ha) | Plant response rating, Wheat ([8]; 500 g ai/ha) | Plant response rating, Oat, Wild (wild oat (Avena fatua); 500 g ai/ha) | Plant response rating, Windgrass ([9]; 250 g ai/ha) | Plant response rating, Windgrass ([9]; 500 g ai/ha)
20: Plant response rating, Corn (corn (Zea mays); Postemergence, 250 g ai/ha) | Plant response rating, Goosegrass [2, 11] | Canarygrass plant response rating ([5]; 125 g ai/ha) | Foxtail, Green plant response rating ([7]; 125 g ai/ha) | Wheat plant response rating ([8]; 62 g ai/ha) | Barley plant response rating ([10]; 125 g ai/ha)
15: Plant response rating, Surinam Grass [1, 14] | Plant response rating, Corn (corn (Zea mays); Preemergence, 125 g ai/ha) | Plant response rating, Corn (corn (Zea mays); Preemergence, 250 g ai/ha) | Plant response rating, Goosegrass [2, 16]
30: Ryegrass, Italian plant response rating ([3]; 62 g ai/ha) | Ryegrass, Italian plant response rating ([3]; 125 g ai/ha) | Plant response rating, Canarygrass ([5]; 250 g ai/ha) | Plant response rating, Bromegrass, Downy ([6]; 500 g ai/ha) | Oat, Wild plant response rating (wild oat (Avena fatua); 62 g ai/ha) | Plant response rating, Barley ([10]; 250 g ai/ha)
45: Plant response rating, Surinam Grass [1, 12]
0: Surinam Grass plant response rating ([1]; Postemergence, 62 g ai/ha) | Surinam Grass plant response rating ([1]; Postemergence, 125 g ai/ha) | Plant response rating, Surinam Grass [1, 13] | Corn plant response rating (corn (Zea mays); Postemergence, 62 g ai/ha) | Corn plant response rating (corn (Zea mays); Postemergence, 125 g ai/ha) | Goosegrass plant response rating ([2]; Postemergence, 62 g ai/ha) | Goosegrass plant response rating ([2]; Postemergence, 125 g ai/ha) | Plant response rating, Goosegrass [2, 13] | Plant response rating, Goosegrass [2, 14] | Plant response rating, Goosegrass [2, 15] | Canarygrass plant response rating ([5]; 62 g ai/ha) | Bromegrass, Downy plant response rating ([6]; 62 g ai/ha) | Bromegrass, Downy plant response rating ([6]; 125 g ai/ha) | Plant response rating, Bromegrass, Downy ([6]; 250 g ai/ha) | Foxtail, Green plant response rating ([7]; 62 g ai/ha) | Barley plant response rating ([10]; 62 g ai/ha)
50: Plant response rating, Ryegrass, Italian ([3]; 250 g ai/ha) | Plant response rating, Ryegrass, Italian ([3]; 500 g ai/ha) | Plant response rating, Blackgrass ([4]; 250 g ai/ha) | Plant response rating, Foxtail, Green ([7]; 250 g ai/ha) | Plant response rating, Wheat ([8]; 250 g ai/ha)
65: Plant response rating, Surinam Grass [1, 16] | Plant response rating, Corn (corn (Zea mays); Preemergence, 500 g ai/ha)
40: Plant response rating, Surinam Grass [1, 11] | Plant response rating, Surinam Grass [1, 15] | Blackgrass plant response rating ([4]; 62 g ai/ha) | Blackgrass plant response rating ([4]; 125 g ai/ha) | Plant response rating, Canarygrass ([5]; 500 g ai/ha) | Wheat plant response rating ([8]; 125 g ai/ha) | Oat, Wild plant response rating (wild oat (Avena fatua); 125 g ai/ha) | Plant response rating, Oat, Wild (wild oat (Avena fatua); 250 g ai/ha) | Windgrass plant response rating ([9]; 62 g ai/ha) | Windgrass plant response rating ([9]; 125 g ai/ha) | Plant response rating, Barley ([10]; 500 g ai/ha)
